Results taken from paper PMC10683482, “Offsetting Low-Affinity Carbohydrate Binding with Covalency to Engage Sugar-Specific Proteins for Tumor-Immune Proximity Induction” (ACS Central Science, 2023).
Read-outs that look alike come from different tables or passages of the source.

Test system: monoclonal anti-23F antibody
Assay: BLI affinity of rhamnose probes for monoclonal anti-23F
Type: binding, human
Settings: for koff: dissociation in 100 mM L-rhamnose; for anti-23F recognition of glycoside variant: 125 nM anti-23F association
From the text: Figure 1 Affinity determination of endogenous and monoclonal antibody sources for L-rhamnose glycoside variants. A. Chemical structures of rhamnose affinity probes. B/C. Approximation of antirhamnose antibody binding affinity for probes 1–3 using biolayer interferometry. B. Purified human serum IgG is used to estimate the affinity of endogenous polyclonal serum antirhamnose antibodies for each affinity probe 1–3. C. Monoclonal anti-23F antibody is used to estimate the potential affinity of vaccine-induced antirhamnose antibodies for each affinity probe 1–3. […] Association was monitored for 900 (B) or 600 (C) seconds. The loaded biosensor probe was then dipped into a dissociation solution of 100 mM L-rhamnose for 600 s. Association curves were fit to a two-phase association model in GraphPad Prism using Kfast to calculate kon. Dissociation curves were similarly fit to a two-phase decay using Kfast to calculate koff. TEXT PRINTED IN THE PICTURE: (B) no label printed: Polyclonal Human IgG: Kd ≈ 7 x10^-5 M | (C) no label printed: Monoclonal Anti-23F: Kd ≈ 6 x10^-6 M DOUBTS OF THE COPYIST ABOUT THIS PICTURE: Panel B, Kd ≈ 7 x10^-5 M: printed once in the plot with no link to a single curve, so it is unclear which of (1) α–O, (2) α–S and (3) β–S it applies to / Panel C, Kd ≈ 6 x10^-6 M: printed once in the plot with no link to a single curve, so it is unclear which of (1) α–O, (2) α–S and (3) β–S it applies to […]
The advancement of synthetic immunotherapeutic modalities targeting anti-rhamnose antibodies has been complicated by a lack of model monoclonal antibody to enable medicinal chemistry optimization. Previous studies relied on polyclonal antirhamnose sources (e.g., human/rabbit serum) for validation studies. We hypothesized that antibodies induced by vaccination against the 23F serotype of streptococcus pneumonia (which contains α-rhamnose) would serve as a source of novel monoclonal antibodies. FDA-approved vaccines (such as PPV23) can induce anti-23F antibodies, with patient-derived monoclonal anti-23F antibody sequences commercially available.[22]−[24] We proceeded to study anti-23F in BLI assays as done in Figure 1B (Figure 1C, association phase = 125 nM anti-23F). […] Furthermore, given the efficient recognition of α-rhamnose by both endogenous human polyclonal and monoclonal antirhamnose sources, it was selected as the ABD for subsequent cARM development.
General Notes and Materials […]
Biolayer Interferometry (BLI) General notes and Materials
IgG from human serum was purchased from Innovative Research (IHUI GGAP1000MG). Anti -23F antibody was purchased fr om Creative Biolabs (PABX -173). Biolayer Interferometry (BLI) was conducted using a ForteBio Octet Red96, and streptavidin biosensors (Sartorius - 18-5019) or ProG biosensors (Sartorius – 18-5082). For quench, a 5% skim milk (Nestle Carnation Instant Skim Milk) solution in 1X kinetics buffer was used. The instrument was set at 25 °C, with 1000 RPM, and acquisition rate of 5 Hz.
Each well of a black well plate (Greiner Bio -One - 655086) was filled with 200 µL of appropriate solution.
Dissociation buffer was comprised of L-rhamnose (100 mM, Sigma Aldrich – R3875-10G) in 1X kinetics buffer to reduce avidity contribution to dissociation rate (koff).
SDS-PAGE General notes and Materials […]
Carboxyfluorescein was purchased from Sigma Aldrich (21877 -5G-F). IgG from human serum was purchased from Innovative Research (IHUIGGAP1000MG). Anti -23F antibody was purchased from Creative Biolabs (PABX -173). Laemellie Buffer (2x) was purchased from Sigma Aldrich (S3401 -10VL).
Pre-cast Tris-Glycine Gels (4-20%) were purchased from Fisher Scientific (XP04202BOX). […]
A647-alkyne was purchased from Broadpharm (BP-28217). Gels were stained using Coomassie Stain from Bio Rad (1610786), and subsequently imaged using an Odyssey CLX imager. Gels were run at 90V for 15 minutes, followed by […]
ADCC Reporter Assay General notes and Materials […]

[1] = average of three anti-23F concentrations, read-out: Avg Kd

SMILES | kon (125 nM Anti-23F) | koff (125 nM Anti-23F) | Kd (125 nM Anti-23F, read-out: Kd) | anti-23F recognition of glycoside variant | kon (250 nM Anti-23F) | koff (250 nM Anti-23F) | Kd (250 nM Anti-23F, read-out: Kd) | kon (500 nM Anti-23F) | koff (500 nM Anti-23F) | Kd (500 nM Anti-23F, read-out: Kd) | Kd [1]
C[C@@H]1O[C@@H](OCc2cn(CCOCCNC(=O)OCCOCCOCCOCCOCCOCCOCCOCCNC(=O)CCCC[C@@H]3SC[C@@H]4NC(=O)N[C@@H]43)nn2)[C@H](O)[C@H](O)[C@H]1O [compound 1] | 1.1e+06 M⁻¹ s⁻¹ | 5.591 s⁻¹ | 5.2 µM | uniquely specific for α-glycoside variants | 920000 M⁻¹ s⁻¹ | 5.773 s⁻¹ | 6.2 µM | 630000 M⁻¹ s⁻¹ | 4.673 s⁻¹ | 7.4 µM | 6.3 ± 1.1 µM
C[C@@H]1O[C@@H](SCc2cn(CCOCCNC(=O)OCCOCCOCCOCCOCCOCCOCCOCCNC(=O)CCCC[C@@H]3SC[C@@H]4NC(=O)N[C@@H]43)nn2)[C@H](O)[C@H](O)[C@H]1O [compound 2] | 770000 M⁻¹ s⁻¹ | 4.018 s⁻¹ | 5.2 µM | uniquely specific for α-glycoside variants | 730000 M⁻¹ s⁻¹ | 4.378 s⁻¹ | 6 µM | 560000 M⁻¹ s⁻¹ | 3.509 s⁻¹ | 6.2 µM | 5.8 ± 0.5 µM
